Source: patent US8846569B2, “Pesticidal bis-organosulfur compounds” (Merial Limited, priority 2009, dated 2014)
Like-named read-outs stand apart in the source and are kept apart here.

Tests used:
[1] = tested on: Anthonomus grandis; experiment: Boll weevil (Anthonomus grandis) diet/egg test; assay type: in vivo; details: 120 h, read-out: mortality in comparison with untreated controls
Protocol: For evaluating control of boll weevil (Anthonomus grandis) the test unit consisted of 24-well-microtiter plates containing an insect diet and 20-30 A. grandis eggs.
The compounds were formulated using a solution containing 75% v/v water and 25% v/v DMSO. Different concentrations of formulated compounds were sprayed onto the insect diet at 20 μl, using a custom built micro atomizer, at two replications.
After application, microtiter plates were incubated at about 23±1° C. and about 50±5% relative humidity for 5 days. Egg and larval mortality was then visually assessed.

[2] = tested on: Ceratitis capitata; experiment: Mediterranean fruitfly (Ceratitis capitata) diet/egg test; assay type: in vivo; details: 120 h, read-out: mortality in comparison with untreated controls
Protocol: For evaluating control of Mediterranean fruitfly (Ceratitis capitata) the test unit consisted of microtiter plates containing an insect diet and 50-80 C. capitata eggs.
The compounds were formulated using a solution containing 75% v/v water and 25% v/v DMSO. Different concentrations of formulated compounds were sprayed onto the insect diet at 5 nl, using a custom built micro atomizer, at two replications.
(§1) After application, microtiter plates were incubated at about 28±1° C. and about 80±5% relative humidity for 5 days. Egg and larval mortality was then visually assessed.

[3] = tested on: Heliothis virescens; experiment: Tobacco budworm (Heliothis virescens) diet/egg test; assay type: in vivo; details: for mortality at 2500 ppm: Heliothis virescens, 120 h, read-out: mortality in comparison with untreated controls
Protocol: For evaluating control of tobacco budworm (Heliothis virescens) the test unit consisted of 96-well-microtiter plates containing an insect diet and 15-25 H. virescens eggs.
The compounds were formulated using a solution containing 75% v/v water and 25% v/v DMSO. Different concentrations of formulated compounds were sprayed onto the insect diet at 10 μl, using a custom built micro atomizer, at two replications.
as §1
The biological activity shown tables under CB.1 and CB.2 was evaluated on scale range from 0% as showing no biological activity to 100% as having total control. The biological tests were conducted as described above.

[4] = tested on: Myzus persicae; experiment: Green peach aphid (Myzus persicae) artificial diet test; assay type: in vivo; details: 72 h, read-out: mortality in comparison with untreated controls
Text: For evaluating control of green peach aphid (Myzus persicae) the test unit consisted of 96-well-microtiter plates containing liquid artificial diet under an artificial membrane.
The compounds were formulated using a solution containing 75% v/v water and 25% v/v DMSO. Different concentrations of formulated compounds were pipetted into the aphid diet, using a custom built pipetter, at two replications.
After application, 5-8 adult aphids were placed on the artificial membrane inside the microtiter plate wells. The aphids were then allowed to suck on the treated aphid diet and incubated at about 23±1° C. and about 50±5% relative humidity for 3 days. Aphid mortality and fecundity was then visually assessed.

[5] = tested on: Megoura viciae; experiment: Vetch aphid (Megoura viciae) leaf disk test; assay type: in vivo; details: foliar, 120 h, read-out: mortality in comparison with untreated controls
Protocol: For evaluating control of vetch aphid (Megoura viciae) through contact or systemic means the test unit consisted of 24-well-microtiter plates containing broad bean leaf disks.
The compounds were formulated using a solution containing 75% v/v water and 25% v/v DMSO. Different concentrations of formulated compounds were sprayed onto the leaf disks at 2.5 μl, using a custom built micro atomizer, at two replications.
After application, the leaf disks were air-dried and 5-8 adult aphids placed on the leaf disks inside the microtiter plate wells. The aphids were then allowed to suck on the treated leaf disks and incubated at about 23±1° C. and about 50±5% relative humidity for 5 days. Aphid mortality and fecundity was then visually assessed.

[6] = tested on: Aedes aegypti; experiment: Aedes aegypti neonate larvae motility assay; assay type: in vivo; details: larval motility, dose response
Protocol: Compounds formulated in 100% DMSO are tested in microtiter plates containing 180 ul 1× Luria Broth media and 10 neonate A. aegypti larvae. The efficacy of a compound is determined based on the motility of the larvae as compared to average motility of control wells containing DMSO only. A dose response assay is conducted with compounds with >80% reduction in motility in the primary assay to determine an EC50 value. Selected compounds are advanced to insecticide secondary assays.

[7] = 2500 ppm, egg and larval mortality, 5 days
[8] = 2500 ppm, adult aphids on treated artificial diet, 3 days
[9] = 2500 ppm, adult aphids on sprayed broad bean leaf disks, 5 days

## CC(C#N)(CCSC(F)(F)F)S(=O)(=O)CCSC(F)(F)F (stereo not shown) [II-26, 2-Methyl-4-trifluoromethylsulfanyl-2-(2-trifluoromethylsulfanyl-ethanesulfonyl)-butyronitrile]
[1]; [7]
  mortality at 2500 ppm: > 90%

## CC(CCSC(F)(F)F)(C(N)=O)S(=O)(=O)CCC(F)(F)C(F)(F)F (stereo not shown) [II-20, 2-Methyl-2-(3,3,4,4,4-pentafluoro-butane-1-sulfonyl)-4-trifluoromethylsulfanyl-butyramide]
[2]; [7]
  mortality at 2500 ppm: > 90%
[1]; [7]
  mortality at 2500 ppm: > 90%

## CNC(=O)C(C)(CCSC(F)(F)F)S(=O)(=O)CCC(F)(F)C(F)(F)F (stereo not shown) [II-21, 2,N-Dimethyl-2-(3,3,4,4,4-pentafluoro-butane-1-sulfonyl)-4-trifluoromethylsulfanyl-butyramide]
[2]; [7]
  mortality at 2500 ppm: > 90%
[1]; [7]
  mortality at 2500 ppm: > 90%

## N#CC(CCSC(F)(F)F)S(=O)(=O)Cc1ccc(C(F)(F)F)nc1 (stereo not shown) [II-9, 2-(6-Trifluoromethyl-pyridin-3-ylmethanesulfonyl)-4-trifluoromethylsulfanyl-butyronitrile]
other
  melting point: 129 to 130 °C

## CC(C#N)(CCSC(F)(F)F)S(=O)(=O)CCC(F)(F)C(F)(F)C(F)(F)F (stereo not shown) [II-25, 2-(3,3,4,4,5,5,5-Heptafluoro-pentane-1-sulfonyl)-2-methyl-4-trifluoromethylsulfanyl-butyronitrile]
[2]
  mortality at 2500 ppm: > 90%
[3]
  mortality at 2500 ppm: > 90%
[4]
  mortality at 2500 ppm: > 90%
[1]
  mortality at 2500 ppm: > 90%
[5]
  mortality at 2500 ppm: > 90%

## N#CC(CCSC(F)(F)F)S(=O)(=O)Cc1ccc(Cl)nc1 (stereo not shown) [II-7, 2-(6-Chloro-pyridin-3-ylmethanesulfonyl)-4-trifluoromethylsulfanyl-butyronitrile]
other
  melting point: 122 to 124 °C

## N#CC(CCSC(F)(F)F)S(=O)(=O)Cn1ccc(C(F)(F)F)n1 (stereo not shown) [II-13, 2-(3-Trifluoromethyl-pyrazol-1-ylmethanesulfonyl)-4-trifluoromethylsulfanyl-butyronitrile]
other
  melting point: 65 to 67 °C

## N#CC(CCC(F)(F)F)S(=O)(=O)CCC(F)(F)C(F)(F)F (stereo not shown) [CE. 1, reference compound]
[3]; 800 ppm, scale 0% no biological activity to 100% total control
  activity in [%]: 0%

## CCOC(=O)C(C)(CCSC(F)(F)F)S(=O)(=O)CCC(F)(F)C(F)(F)F (stereo not shown) [II-4, Ethyl 2-methyl-2-(3,3,4,4,4-pentafluoro-butane-1-sulfonyl)-4-trifluoromethylsulfanyl-butyrate]
[2]; [7]
  mortality at 2500 ppm: > 90%
[4]; [8]
  mortality at 2500 ppm: > 90%
[1]; [7]
  mortality at 2500 ppm: > 90%
[6]
  EC50: < 5 µg/mL
[5]; [9]
  mortality at 2500 ppm: > 90%

## CC(CCSC(F)(F)F)(C(N)=S)S(=O)(=O)CCC(F)(F)C(F)(F)F (stereo not shown) [II-23, 2-Methyl-2-(3,3,4,4,4-pentafluoro-butane-1-sulfonyl)-4-trifluoromethylsulfanyl-thiobutyramide]
[2]; [7]
  mortality at 2500 ppm: > 90%
[3]; [7]
  mortality at 2500 ppm: > 90%
[1]; [7]
  mortality at 2500 ppm: > 90%

## CC(CCSC(F)(F)F)(C(=O)O)S(=O)(=O)CCC(F)(F)C(F)(F)F (stereo not shown) [II-19, 2-Methyl-2-(3,3,4,4,4-pentafluoro-butane-1-sulfonyl)-4-trifluoromethylsulfanyl-butyric acid]
[1]; [7]
  mortality at 2500 ppm: > 90%
[5]; [9]
  mortality at 2500 ppm: > 90%

## N#CC(CCSC(F)(F)F)[S+]([O-])CCC(F)(F)C(F)(F)F (stereo not shown) [II-16, 2-(3,3,4,4,4-Pentafluoro-butane-1-sulfinyl)-4-trifluoromethylsulfanyl-butyronitrile]
[2]; [7]
  mortality at 2500 ppm: > 90%
[4]; [8]
  mortality at 2500 ppm: > 90%
[1]; [7]
  mortality at 2500 ppm: > 90%
[5]; [9]
  mortality at 2500 ppm: > 90%

## CCC(C#N)(CCSC(F)(F)F)S(=O)(=O)CCC(F)(F)C(F)(F)F (stereo not shown) [II-17, 2-Ethyl-2-(3,3,4,4,4-pentafluoro-butane-1-sulfonyl)-4-trifluoromethylsulfanyl-butyronitrile]
[2]; [7]
  mortality at 2500 ppm: > 90%
[3]; [7]
  mortality at 2500 ppm: > 90%
[4]; [8]
  mortality at 2500 ppm: > 90%
[1]; [7]
  mortality at 2500 ppm: > 90%
[6]
  EC50: < 5 µg/mL

## CN(C)C(=O)C(C)(CCSC(F)(F)F)S(=O)(=O)CCC(F)(F)C(F)(F)F (stereo not shown) [II-22, 2,N,N-Trimethyl-2-(3,3,4,4,4-pentafluoro-butane-1-sulfonyl)-4-trifluoromethylsulfanyl-butyramide]
[2]; [7]
  mortality at 2500 ppm: > 90%
[4]; [8]
  mortality at 2500 ppm: > 90%
[1]; [7]
  mortality at 2500 ppm: > 90%
[6]
  EC50: < 5 µg/mL
[5]; [9]
  mortality at 2500 ppm: > 90%

## N#CC(CCSC(F)(F)F)SCCC(F)(F)C(F)(F)F (stereo not shown) [II-15, 2-(3,3,4,4,4-Pentafluoro-butylsulfanyl)-4-trifluoromethylsulfanyl-butyronitrile]
[2]; [7]
  mortality at 2500 ppm: > 90%
[3]; [7]
  mortality at 2500 ppm: > 90%
[4]; [8]
  mortality at 2500 ppm: > 90%
[1]; [7]
  mortality at 2500 ppm: > 90%
[6]
  EC50: < 5 µg/mL
[5]; [9]
  mortality at 2500 ppm: > 90%

## N#CC(CCSC(F)(F)F)S(=O)(=O)CCC(F)(F)C(F)(F)C(F)(F)F (stereo not shown) [II-24, 2-(3,3,4,4,5,5,5-Heptafluoro-pentane-1-sulfonyl)-4-trifluoromethylsulfanyl-butyronitrile]
[4]
  mortality at 2500 ppm: > 90%
[1]
  mortality at 2500 ppm: > 90%
[5]
  mortality at 2500 ppm: > 90%

## N#CC(CCSC(F)(F)F)S(=O)(=O)Cc1ccc(C(F)(F)F)cc1 (stereo not shown) [II-11, 2-(4-Trifluoromethyl-phenylmethanesulfonyl)-4-trifluoromethylsulfanyl-butyronitrile]
other
  melting point: 153 to 155 °C

## CC(C#N)(CCSC(F)(F)F)S(=O)(=O)Cc1ccc(C(F)(F)F)nc1 (stereo not shown) [II-10, 2-Methyl-2-(6-trifluoromethyl-pyridin-3-ylmethanesulfonyl)-4-trifluoromethylsulfanyl-butyronitrile]
other
  melting point: 109 to 110 °C

## CCCC(C#N)(CCSC(F)(F)F)S(=O)(=O)CCC(F)(F)C(F)(F)F (stereo not shown) [II-18, 2-(3,3,4,4,4-Pentafluoro-butane-1-sulfonyl)-2-(2-trifluoromethylsulfanyl-ethyl)-pentanenitrile]
[2]; [7]
  mortality at 2500 ppm: > 90%
[1]; [7]
  mortality at 2500 ppm: > 90%
[6]
  EC50: < 5 µg/mL

## N#CC(CCSC(F)(F)F)S(=O)(=O)Cc1cccc(C(F)(F)F)c1 (stereo not shown) [II-5, 2-(3-Trifluoromethyl-phenylmethanesulfonyl)-4-trifluoromethylsulfanyl-butyronitrile]
other
  melting point: 100 to 102 °C
[6]
  EC50: < 5 µg/mL

## CC(C#N)(CCSC(F)(F)F)S(=O)(=O)Cc1cccc(C(F)(F)F)c1 (stereo not shown) [II-6, 2-Methyl-2-(3-trifluoromethyl-phenylmethanesulfonyl)-4-trifluoromethylsulfanyl-butyronitrile]
other
  melting point: 92 to 94 °C
[6]
  EC50: < 5 µg/mL

## CC(C#N)(CCSC(F)(F)F)S(=O)(=O)Cc1ccc(C(F)(F)F)cc1 (stereo not shown) [II-12, 2-Methyl-2-(4-trifluoromethyl-phenylmethanesulfonyl)-4-trifluoromethylsulfanyl-butyronitrile]
other
  melting point: 102 to 104 °C

## CCOC(=O)C(CCSC(F)(F)F)S(=O)(=O)CCC(F)(F)C(F)(F)F (stereo not shown) [II-3, Ethyl 2-(3,3,4,4,4-Pentafluoro-butane-1-sulfonyl)-4-trifluoromethylsulfanyl-butyrate]
[2]; [7]
  mortality at 2500 ppm: > 90%
[4]; [8]
  mortality at 2500 ppm: > 90%
[1]; [7]
  mortality at 2500 ppm: > 90%
[6]
  EC50: < 5 µg/mL
[5]; [9]
  mortality at 2500 ppm: > 90%

## CC(C#N)(CCSC(F)(F)F)S(=O)(=O)Cn1ccc(C(F)(F)F)n1 (stereo not shown) [II-14, 2-Methyl-2-(3-trifluoromethyl-pyrazol-1-ylmethanesulfonyl)-4-trifluoromethylsulfanyl-butyronitrile]
[2]; [7]
  mortality at 2500 ppm: > 90%
[1]; [7]
  mortality at 2500 ppm: > 90%
